How the values were obtained:
[1] = biological target: T1, UrdA′ (isolated FAD domain of urocanate reductase) (Shewanella oneidensis, UniProt Q8CVD0); assay: copurification; absorbance spectrum before and after SDS/heat release of FAD; format: binding; conditions: noncovalent; pH 7
T1 construct: N-terminal FMN domain removed), C-terminal His tag, pET29b, E. coli BL21 (DE3); noncovalent FAD

Arg411 = Arg411 (UniProt position 411, EELERRDVISH); assay: kinetics (anaerobic stopped-flow spectrophotometry); conditions: 4 °C, 100 mM NaCl, 50 mM Bis-Tris propane (pH 6-9) or 50 mM CAPS (pH >9), 10% glycerol, reduced FAD (flavin hydroquinone) enzyme in complex with urocanate, folded (unfolding above pH 10.5 by CD)

T1 sequence (Q8CVD0 130-582): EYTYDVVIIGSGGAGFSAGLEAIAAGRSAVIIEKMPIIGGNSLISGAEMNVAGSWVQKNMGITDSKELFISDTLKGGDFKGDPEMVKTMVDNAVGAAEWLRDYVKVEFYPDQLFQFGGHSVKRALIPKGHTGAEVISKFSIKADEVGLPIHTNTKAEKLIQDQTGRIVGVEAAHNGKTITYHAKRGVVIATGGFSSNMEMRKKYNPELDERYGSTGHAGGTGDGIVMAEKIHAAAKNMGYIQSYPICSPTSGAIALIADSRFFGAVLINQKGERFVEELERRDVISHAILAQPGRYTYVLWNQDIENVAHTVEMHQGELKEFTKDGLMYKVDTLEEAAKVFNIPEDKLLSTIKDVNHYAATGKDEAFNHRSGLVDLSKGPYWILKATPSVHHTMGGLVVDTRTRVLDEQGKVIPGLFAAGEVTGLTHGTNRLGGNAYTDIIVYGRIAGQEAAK

Compound | copurification; absorbance spectrum before and after SDS/heat release of FAD [1] | pKa (Arg411)
Cc1cc2nc3c(=O)[nH]c(=O)nc-3n(C[C@H](O)[C@H](O)[C@H](O)COP(=O)(O)OP(=O)(O)OC[C@H]3O[C@@H](n4cnc5c(N)ncnc54)[C@H](O)[C@@H]3O)c2cc1C [FAD] | extinction coefficient of FAD bound to the variants was then calculated | –
Urocanate reductase, isolated FAD-binding C-terminal domain (UrdA') (Shewanella oneidensis MR-1) | – | 9.4 ± 0.1

— article PMC10882135, “Rapid reaction studies on the chemistry of flavin oxidation in urocanate reductase” (The Journal of Biological Chemistry, 2024)
